In patent US11008323B2, “Substituted tricyclic 1,4-benzodiazepinone derivatives as allosteric modulators of group II metabotropic glutamate receptors” (Domain Therapeutics, priority 2015, dated 2021):

Target: T1, human mGluR3 (hmGluR3) (Homo sapiens, UniProt Q14832)
T1 construct: expressed in transfected cells; host or cells: HEK-293 cells, transient co-transfection by electroporation
Test: Human mGluR3 positive allosteric modulator evaluation using Ca++ functional assay
Format: cell-based
Conditions: hmGluR3 transiently over-expressed in HEK-293 cells; stimulated by EC50 glutamate concentration; intracellular Ca2+ (Fluo4AM, FLIPR Tetra)
Description: Compounds of the present invention were tested successively for their agonist and positive allosteric modulator activities on human mGluR3 (hmGluR3) transiently over-expressed in HEK-293 cells. Compounds exert agonist activity if they are able to activate hmGluR3 by themselves, i.e., in absence of the endogenous agonist glutamate; and they exert positive allosteric modulator activity if they increase the action of the endogenous agonist glutamate.
HEK-293 cells were maintained in Modified Eagle's Medium supplemented with 10% Foetal Calf Serum, 1% Penicillin/Streptomycin and 1% non-essential amino acids at 37° C./5% CO2.
Cells were co-transfected by electroporation with four DNA plasmids encoding hmGluR3, a chimeric G protein allowing redirection of the activation signal toward intracellular calcium pathway, and two glutamate transporters so as to decrease extracellular glutamate levels and avoid receptor desensitization (Brabet I et al., Neuropharmacology 37(8), 1043-51, 1998). After transfection, cells were seeded in 75 cm^2 culture flasks, and cultured for 24 h.
Receptor activity was detected by changes in intracellular calcium measured using the fluorescent Ca^2+ sensitive dye, Fluo4AM (Molecular Probes).
The day of the assay, medium was aspirated and replaced during 3 hrs by freshly prepared buffer B (HBSS 1×, Hepes 20 mM, MgSO4-7H2O 1 mM, Na2CO3 3.3 mM, CaCl2-2H2O 1.3 mM, 0.5% BSA, Probenecid 2.5 mM). Then, cells were loaded at 37° C./5% CO2 for 1.5 hrs with buffer B containing 1 μM Fluo4AM, 0.1 mg/mL Pluronic Acid, 7 μg/mL Glutamate Pyruvate Transaminase and 2 mM sodium pyruvate. Afterwards cells were washed with buffer B. Cells were then detached from the 75 cm^2 culture flasks with Accutase® (5 min incubation at 37° C.), centrifuged (5 min at 840 rpm), resuspended in buffer B and finally seeded at a density of 30,000 cells/well in black-walled clear-bottom 384-well plates. Addition of compounds on cells and intracellular Ca^2+ measurements (excitation 485 nm, emission 525 nm) were performed by the fluorescence microplate reader FLIPR Tetra (Molecular Devices).
Agonist and positive allosteric modulator activities of compounds were consecutively evaluated on the same cells plate. Agonist activity was first tested during 10 min with the addition of compound alone on the cells. Then, the cells were stimulated by an EC50 glutamate concentration and fluorescence was recorded for additional 3 min. EC50 glutamate concentration is the concentration giving 50% of the maximal glutamate response. Agonist and/or positive allosteric modulator activity(ies) were evaluated in comparison to basal signal or signal evoked by EC50 glutamate concentration alone, respectively.
For potency determination, a dose-response test was performed using 20 concentrations of each compound of the invention. Dose-response curves were fitted using the sigmoïdal dose-response (variable slope) analysis in XLfit Scientific Curve Fitting for Excel (IDBS). EC50 of agonist/EC50 of positive allosteric modulator activity(ies) were calculated. Dose-response experiments were all performed in duplicate, two times independently.

T1 sequence (Q14832 23-879): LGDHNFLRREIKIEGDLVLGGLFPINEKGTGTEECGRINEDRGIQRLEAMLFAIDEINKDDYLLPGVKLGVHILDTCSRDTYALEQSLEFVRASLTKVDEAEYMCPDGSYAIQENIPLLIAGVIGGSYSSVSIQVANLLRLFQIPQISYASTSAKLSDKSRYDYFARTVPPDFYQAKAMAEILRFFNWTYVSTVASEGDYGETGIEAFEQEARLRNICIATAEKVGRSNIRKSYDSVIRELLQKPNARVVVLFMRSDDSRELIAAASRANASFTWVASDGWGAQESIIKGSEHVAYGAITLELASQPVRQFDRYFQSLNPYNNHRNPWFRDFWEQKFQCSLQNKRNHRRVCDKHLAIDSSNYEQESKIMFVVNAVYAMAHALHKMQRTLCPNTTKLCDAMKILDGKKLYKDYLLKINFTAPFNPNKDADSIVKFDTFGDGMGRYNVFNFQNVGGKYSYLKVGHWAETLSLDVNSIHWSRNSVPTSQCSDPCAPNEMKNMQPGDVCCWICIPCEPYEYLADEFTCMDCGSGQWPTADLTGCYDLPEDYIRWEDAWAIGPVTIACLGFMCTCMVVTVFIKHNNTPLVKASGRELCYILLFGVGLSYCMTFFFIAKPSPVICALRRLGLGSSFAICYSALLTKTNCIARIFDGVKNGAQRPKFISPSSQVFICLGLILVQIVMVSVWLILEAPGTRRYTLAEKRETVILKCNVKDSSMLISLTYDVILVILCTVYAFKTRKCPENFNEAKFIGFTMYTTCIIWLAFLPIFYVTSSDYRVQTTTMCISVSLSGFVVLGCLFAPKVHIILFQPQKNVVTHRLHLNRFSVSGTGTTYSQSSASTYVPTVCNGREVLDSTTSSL

SMILES | EC50 [nM]
CN(C)c1ncccc1-c1ccc2c(c1)-n1cc(-c3ccccc3)cc1C(=O)N(C)C21CC1 [Example 119, 5-Methyl-2-phenyl-9-(2-dimethylamino-pyridin-3-yl)-spiro[benzo[f]pyrrolo[1,2-a][1,4]diazepine-6,1′-cyclopropan]-4(5H)-one] | > 1000
Cc1cc(-c2ccc3c(c2)-n2nc(-c4ccccc4)cc2C(=O)N(C)C32CC2)cc(C)n1 [Example 121, 9-(2,6-Dimethyl-pyridin-4-yl)-5-methyl-2-phenyl-spiro[benzo[f]pyrazolo[1,5-a][1,4]diazepine-6,1′-cyclopropan]-4(5H)-one] | 100 to 1000
Cc1cc(-c2ccc3c(c2)-n2nc(-c4ccccc4)cc2C(=O)N(C)C32CC2)ccn1 [Example 122, 9-(2-Methyl-pyridin-4-yl)-5-methyl-2-phenyl-spiro[benzo[f]pyrazolo[1,5-a][1,4]diazepine-6,1′-cyclopropan]-4(5H)-one] | 100 to 1000
Cc1ncccc1-c1ccc2c(c1)-n1nc(-c3ccccc3)cc1C(=O)N(C)C21CC1 [Example 125, 9-(2-Methyl-pyridin-3-yl)-5-methyl-2-phenyl-spiro[benzo[f]pyrazolo[1,5-a][1,4]diazepine-6,1′-cyclopropan]-4(5H)-one] | < 100
Cc1ccc(-c2ccc3c(c2)-n2nc(-c4ccccc4)cc2C(=O)N(C)C32CC2)c(C)n1 [Example 126, 9-(2,6-Dimethyl-pyridin-3-yl)-5-methyl-2-phenyl-spiro[benzo[f]pyrazolo[1,5-a][1,4]diazepine-6,1′-cyclopropan]-4(5H)-one] | < 100
CN1C(=O)c2cc(-c3ccccc3)nn2-c2cc(-c3ccc(N)nc3)ccc2C12CC2 [Example 127, 9-(6-Amino-pyridin-3-yl)-5-methyl-2-phenyl-spiro[benzo[f]pyrazolo[1,5-a][1,4]diazepine-6,1′-cyclopropan]-4(5H)-one] | < 100
CN1C(=O)c2cc(-c3ccccc3)nn2-c2cc(-c3cccc(Cl)c3)ccc2C12CC2 [Example 130, 9-(3-Chloro-phenyl)-5-methyl-2-phenyl-spiro[benzo[f]pyrazolo[1,5-a][1,4]diazepine-6,1′-cyclopropan]-4(5H)-one] | 100 to 1000
CN1C(=O)c2cc(-c3ccccc3)nn2-c2cc(-c3ccccc3Cl)ccc2C12CC2 [Example 131, 9-(2-Chloro-phenyl)-5-methyl-2-phenyl-spiro[benzo[f]pyrazolo[1,5-a][1,4]diazepine-6,1′-cyclopropan]-4(5H)-one] | > 1000
CN1C(=O)c2cc(-c3ccccc3)nn2-c2cc(-c3ccc(Cl)cc3)ccc2C12CC2 [Example 135, 9-(4-Chloro-phenyl)-5-methyl-2-phenyl-spiro[benzo[f]pyrazolo[1,5-a][1,4]diazepine-6,1′-cyclopropan]-4(5H)-one] | > 1000
Cc1ncccc1-c1ccc2c(c1)-n1cc(-c3ccccc3)nc1C(=O)N(C)C21CC1 [Example 140, 9-(2-Methyl-pyridin-3-yl)-5-methyl-2-phenyl-spiro[benzo[f]imidazo[1,2-a][1,4]diazepine-6,1′-cyclopropan]-4(5H)-one] | < 100
Cc1ncccc1-c1ccc2c(c1)-n1cc(-c3cccnc3)cc1C(=O)N(C)C21CC1 [Example 143] | < 100
Cc1cc2n(c1)-c1cc(-c3cccnc3C)ccc1C1(CC1)N(C)C2=O [Example 144] | < 100
Cc1ncccc1-c1ccc2c(c1)-n1cc(-c3ccncc3)cc1C(=O)N(C)C21CC1 [Example 145] | < 100
Cc1ncccc1-c1ccc2c(c1)-n1cc(-c3cc[nH]n3)cc1C(=O)N(C)C21CC1 [Example 146] | < 100
Cc1ncccc1-c1ccc2c(c1)-n1cc(-c3ccccc3Cl)cc1C(=O)N(C)C21CC1 [Example 147] | 100 to 1000
Cc1ncccc1-c1ccc2c(c1)-n1cc(-c3cccc(Cl)c3)cc1C(=O)N(C)C21CC1 [Example 148] | 100 to 1000
Cc1ncccc1-c1ccc2c(c1)-n1cc(-c3ccc(Cl)cc3)cc1C(=O)N(C)C21CC1 [Example 149] | 100 to 1000
Cc1ncccc1-c1ccc2c(c1)-n1cc(-c3ccc(F)cc3)cc1C(=O)N(C)C21CC1 [Example 150] | 100 to 1000
Cc1ncccc1-c1ccc2c(c1)-n1cc(-c3ccccc3F)cc1C(=O)N(C)C21CC1 [Example 151] | < 100
Cc1ncccc1-c1ccc2c(c1)-n1cc(-c3cccc(F)c3)cc1C(=O)N(C)C21CC1 [Example 152] | < 100

SMILES | EC50 [nM]
Cc1ncccc1-c1ccc2c(c1)-n1cc(N(C)C)cc1C(=O)N(C)C21CC1 [Example 154] | 100 to 1000
Cc1ncccc1-c1ccc2c(c1)-n1cc(C3CC3)cc1C(=O)N(C)C21CC1 [Example 155] | < 100
Cc1ncccc1-c1ccc2c(c1)-n1cc(C3CCCC3)cc1C(=O)N(C)C21CC1 [Example 156] | 100 to 1000
Cc1ncccc1-c1ccc2c(c1)-n1cc(-c3nccs3)cc1C(=O)N(C)C21CC1 [Example 157] | < 100
Cc1ccc(-c2ccc3c(c2)-n2cc(-c4nccs4)cc2C(=O)N(C)C32CC2)cn1 [Example 158] | < 100
Cc1ccc(-c2ccc3c(c2)-n2cc(-c4ccnn4C)cc2C(=O)N(C)C32CC2)cn1 [Example 159] | < 100
Cc1ncccc1-c1ccc2c(c1)-n1cc(-c3ccnn3C)cc1C(=O)N(C)C21CC1 [Example 160] | < 100
CCc1ncccc1-c1ccc2c(c1)-n1cc(-c3ccccc3F)cc1C(=O)N(C)C21CC1 [Example 162] | < 100
CCc1ncccc1-c1ccc2c(c1)-n1cc(-c3ccnn3C)cc1C(=O)N(C)C21CC1 [Example 163] | < 100
CN1Cc2ccc(-c3ccc(N)nc3)cc2-n2cc(-c3ccccc3)cc2C1=O [Example 165, 9-(6-Amino-pyridin-3-yl)-5-methyl-2-phenyl-5,6-dihydro-benzo[f]pyrrolo[1,2-a][1,4]diazepin-4-one] | 100 to 1000
Cc1ncccc1-c1ccc2c(c1)-n1cc(-c3ccccc3)nc1C(=O)N(C)C2 [Example 166, 5-Methyl-9-(2-methylpyridin-3-yl)-2-phenyl-5,6-dihydro-4H-benzo[f]imidazo[1,2-a][1,4]diazepin-4-one] | 100 to 1000
CCN1Cc2ccc(-c3cccnc3C)cc2-n2cc(-c3ccccc3)nc2C1=O [Example 167, 5-Ethyl-9-(2-methylpyridin-3-yl)-2-phenyl-5,6-dihydro-4H-benzo[f]imidazo[1,2-a][1,4]diazepin-4-one] | > 1000
Cc1ncccc1-c1ccc2c(c1)-n1cc(-c3cnco3)cc1C(=O)N(C)C21CC1 [Example 182] | < 100
Cc1ncccc1-c1ccc2c(c1)-n1cc(-c3cnc[nH]3)cc1C(=O)N(C)C21CC1 [Example 183] | < 100
Cc1ncccc1-c1ccc2c(c1)-n1cc(-c3ncc[nH]3)cc1C(=O)N(C)C21CC1 [Example 184] | < 100
CN1C(=O)c2cc(-c3nnco3)cn2-c2cc(Br)ccc2C12CC2 [Example 189] | > 1000
CN1C(=O)c2cc(-c3nnco3)cn2-c2cc(-c3ccc(Cl)nc3)ccc2C12CC2 [Example 191] | < 100
Cc1ncccc1-c1ccc2c(c1)-n1cc(C(=O)C3CCCC3)cc1C(=O)N(C)C21CC1 [Example 194] | 100 to 1000
CC(=O)c1cc2n(c1)-c1cc(-c3cccnc3C)ccc1C1(CC1)N(C)C2=O [Example 195] | 100 to 1000
Cc1ncccc1-c1ccc2c(c1)-n1cc(CC3CCCC3)cc1C(=O)N(C)C21CC1 [Example 196] | 100 to 1000
